{
  "source": "patent US7416741B2",
  "about": "“Copper lowering treatment of inflammatory and fibrotic diseases” (The Regents of the University of Michigan, priority 2002, dated 2008)",
  "key": {"[1]": {"test_system": "TGFβ", "experiment": "TGFβ ELISA in brain homogenates of Tg2576 mice", "type": "in vivo, mouse", "details": "Ex 8; TM-treated Tg2576 mice", "experimental": "Brain homogenates of left hemi-brains are used for detection of human Aβ40 and Aβ42 by ELISA, as previously described (J Gau J et al., Amer. J. Pathology, 160 2:731-738 […]). Homogenates are centrifuged at 7840×g for 5 minutes at 4 ° C. to remove insoluble material. A sandwich ELISA is performed on the supernatants using BAN50 as the capture antibody and either horseradish peroxidase-coupled BA-27 or BC-05 as the detection antibody for Aβ40 or Aβ42, respectively. BAN-50 is a monoclonal antibody specific for Aβ1-10. All samples are measured in triplicate. Standard curves for the ELISA are constructed using pure human Aβ40 and Aβ42 (Bachem). In addition to measurements of Aβ, a commercially available ELISA is used to detect TGFβ levels in brain homogenates of the two groups."}, "[2]": {"test_system": "Aβ40 and Aβ42", "experiment": "Aβ40 and Aβ42 ELISA in brain homogenates of Tg2576 mice", "type": "in vivo", "details": "Ex 8, TM 0.7 mg/mouse daily from 9 to 15 months of age", "experimental": "A study is carried out in an mouse model of Alzheimer's disease. The mouse model is the Tg2576 mouse model, as described above in the Description of the Invention and in further detail in Gau et al., 2002 (J Gau et al., Amer. J. Pathology, 160(2):731-738 [2002]; J Q Trojanowski, Amer. J. Pathology, 160(2):409-411 [2002]). These mice begin developing amyloid plaques at about 9 months of age and plaques are well developed by 15 months. The transgenic mice also develop progressive age-dependent cognitive and behavioral abnormalities described in the background.\nForty female Tg2576 mice, aged 3 months, are purchased from Tagonic Inc, and grown until 9 months of age, at which time they are divided into two groups of 20. One group begins treatment with TM at 9 months of age, and are treated until sacrifice at age 15 months. […] Cp is determined by an oxidase method. […] The weight of the mice is determined weekly. […]\nAfter 6 months of treatment with water or TM, all mice in both groups are sacrificed painlessly, and the brains removed and divided sagitally. […] Analysis of amyloid plaque load in mouse brains is determined by light-microscopic semi-quantitative analysis of brain sections. Subtle effects of treatment are measured by a more rigorous quantitative analysis of amyloid plaques in brain sections to detect a significant difference. […]"}, "[3]": {"test_system": "cancer patients", "experiment": "TM therapy in cancer patients", "type": "in vivo, human", "details": "180 mg/day induction dose", "experimental": "TM has also shown positive effects in spontaneous canine cancers. A clinical phase ½ study of a variety of metastatic and advanced cancers has shown positive results, with an average of 11 months freedom from progression in evaluable patients, and long term stabilization in three patients (G J Brewer et al., Clin. Cancer Res., 6:1-10 [2000]). A number of phase 2 studies of specific cancers are under way.\nThe current cancer therapy induction dose for TM is 40 mg 3×daily with meals and 60 mg at bedtime separated from food (180 mg/day). At this dose, it takes 15-25 days to induce cancer patients into the Cp target range. This same induction dose is used for IPF patients. All patients remain on their induction doses until they reach target Cp levels, then are switched to maintenance therapy."}, "[4]": {"test_system": "animal model of renal fibrosis", "experiment": "Streptozotocin rat model of renal fibrosis", "type": "in vivo", "details": "Ex 7", "experimental": "A study is carried out in an animal model of renal fibrosis. After kidney injury of almost any type, a diffuse interstitial fibrosis (believed to be due to over-activity of the TGFβ pathway) produces kidney failure. Rats are made diabetic by administering streptozotocin; renal fibrosis is typically well developed by 60 days after initiation of streptozotocin administration. TM therapy is initiated at varying times relative to streptozotocin administration in several groups of rats, and the results compared to control groups not receiving TM. Typically, at least three […] are present in each experimental group. In one group, TM therapy is initiated prior to streptozotocin administration, to determine whether TM therapy mitigates the pancreatic damage, as it mitigates hepatitis/cirrhosis in the concanavilin A mouse model described above. In other groups, TM is started after streptozotocin administration, at various times, to determine if it can mitigate the renal fibrosis that develops after streptozotocin administration."}, "[5]": {"test_system": "LEC rat model", "details": "LEC rats, late stages of liver disease; cited from earlier work"}, "[6]": {"test_system": "rodent cancer models", "details": "five different rodent cancer models; cited from earlier work"}, "[7]": {"test_system": "TNFα", "experiment": "Lung TNFα mRNA by real time RT-PCR, bleomycin model", "type": "in vivo, mouse", "details": "Ex 2 Exp 1; bleomycin/TM; day 7", "experimental": "Cytokine assays. Expression of TNFα and TGFβ was determined in lung tissues from the various experiments. TNFα mRNA was measured in total RNA isolated from lung tissue homogenates. Primer Express 2.0 software (Applied Biosystems, Foster City, Calif.) was used to design Taqman primers and MGB probes (6-FAM conjugated) for TNFα, which were then purchased from Applied Biosystems (PE/ABI, Foster City, Calif.). Primers and probes for GAPDH were purchased from PE/ABI. GAPDH mRNA was used as internal control to normalize the amount of input RNA. One-step real time RT-PCR was undertaken with Taqman One Step RT-PCR Master Mix (PE/ABI) using a GeneAmp 5700 Sequence Detection System (PE/ABI). Results were expressed as the threshold cycle (CT) at which an increase of reporter fluorescence (ΔRn) can first be detected. The levels of TNFα mRNA were normalized to the internal control GAPDH signals and expressed as 2^−ΔΔCT."}, "[8]": {"test_system": "IL-1β", "experiment": "Plasma IL-1β in Con A treated mice", "type": "in vivo, mouse", "details": "Ex 5 Exp 3; p=0.15", "from_the_text": "In a third experiment, two Con A injections one week apart were given to 10 mice. Five of the mice had begun TM treatment 5 days prior to the first injection. All the mice were sacrificed 2 hrs after the last Con A injection."}},
  "data": [
    {"compound": "[SH-].[SH-].[S]=[Mo]=[S]", "note": "[TM, tetrathiomolybdate]", "values": [
      {"measurement": "levels of TGFβ in brain homogenates", "setting": "[1]", "value": "significant reduction"},
      {"measurement": "mean reduction in Aβ40 and Aβ42 levels in brain homogenates", "setting": "[2]", "value": "up to 50%"},
      {"measurement": "time to induce patients into the Cp target range", "setting": "[3]", "value": "15 to 25", "unit": "days"},
      {"measurement": "renal fibrosis", "setting": "[4]; TM after diabetes is induced", "value": "mitigates the renal fibrosis"},
      {"measurement": "pancreatic damage", "setting": "[4]; TM before streptozotocin", "value": "mitigates pancreatic damage"},
      {"measurement": "efficacy against copper toxicity / liver disease", "setting": "[5]", "value": "very effective"},
      {"measurement": "inhibition of tumor growth", "setting": "[6]", "value": "dramatic effects on inhibition of tumor growth"},
      {"measurement": "lung TNFα mRNA levels, bleomycin-induced increase", "setting": "[7]", "value": "almost completely, and significantly, inhibited this increase"},
      {"measurement": "plasma levels of IL-1β", "setting": "[8]", "value": "close to being significantly lower"}
    ]}
  ]
}
